According to patent US20040204390A1, “Pharmaceutical combination comprising an anti-androgen and an oestrogen receptor beta agonist” (priority 2001, published 2004):

Columns and labels:
estrogen receptor = assay: Scatchard analysis of ligand binding affinity on receptor-programmed reticulocyte lysate; conditions: Scatchard analysis at receptor dilutions giving signal:noise ~10
Protocol: The volume of receptor-programmed reticulocyte lysate to be added to the binding assay can be determined independently from two measurements made on each batch of receptor prepared. First, Kis are determined for standard compounds using a series of dilutions of the receptor preparation. Scatchard analysis of ligand binding affinity is performed at the receptor dilutions that produced reported Kis for these compounds and an acceptable signal:noise ratio (˜10).

[1] = humans, single agent therapy, circulating in the blood; Blackledge et al, Urology 1996; cited from earlier work

With `CC12CCC3c4ccc(O)cc4CCC3C1CC([125I])C2O` (stereo not drawn) [[^125I]-estradiol, [^125I]-16α-iodo-3,17β-estradiol] the Kd (estrogen receptor) was 0.1 to 1 nM.
In the case of `CC(O)(CS(=O)(=O)c1ccc(F)cc1)C(=O)Nc1ccc(C#N)c(C(F)(F)F)c1` (stereo not drawn) [bicalutamide, 4′-cyano-α′,α′,α′-trifluoro-3-(4-fluorophenylsulphonyl)-2-hydroxy-2-methylpropiono-m-toluidide], the “basal level of total testosterone” value [1] is listed as “approximate doubling”.
